Patent US20090105149A1, “Compounds comprising lpa” (ENKAM PHARMACEUTICALS A/S, priority 2003, published 2009)
Marks after values point to notes of the source that are not given here.

Assays:
Erk1/2 = experiment: PACE assay, phosphorylation of Erk1/2 in CGN; assay type: cell-based, rat
Description: The total number of neurons was estimated using crystal violet staining. Results from at least three independent experiments are expressed as percentage ±SEM with untreated cultures set at 100%. *p<0.05 and **p<0.01 when compared to the controls.
Detection of phosphorylated Erk1/2 and Akt relative to the total number of CGN is carried out according to Versteeg et al. (2000) FEBS Lett. 465:69-73. For the experiments CGN were plated at a density of 290,000 cells/cm^2 in poly-L-lysine coated 96-well microtiter plates. […] 24 hours after plating, Ara-C was added to the cultures as described above. After 72 hours of incubation, half of the medium was replaced with Neurobasal-A medium containing the peptide to be tested. For the Erk1/2 phosphorylation assay, the cultures were further incubated for 0-90 minutes, centrifuged at 70 g for 8 minutes, fixed with 4% (v/v) formaldehyde and immunostained using primary phospho-p42-44 rabbit antibodies and peroxidase-conjugated anti-rabbit secondary antibodies. For the detection of phosphorylated Akt, the cultures were further incubated for 10 or 30 minutes, centrifuged at 70 g for 8 minutes, fixed with 4% (v/v) formaldehyde and immunostained using polyclonal antibodies against Akt phosphorylated at Ser473 and peroxidase-conjugated secondary antibodies. […]

hippocampal neurons [1] = experiment: FM 1-43 destaining (presynaptic vesicle turnover) in hippocampal neurons; assay type: cell-based, rat
Description: The values were compared using an unpaired t-test. *p=0.04 (1 h) and **p=0.0032 (48 h). FGLcontrol is a control peptide consisting the sequence […] (SEQ ID NO: 147).
The effects of FGLd on vesicle turnover was estimated in primary cultures of hippocampal neurons from embryonic rats (E19). The cultures were prepared as above. Following 13-16 days in vitro, FGLd was added to the cultures and incubated for 1, 24 or 48 hours. After 48 hours of incubation, the FGFR-inhibitor (SU 5402) was added simultaneously with FGLd to some of the cultures.
After treatment with FGLd the neurons were labeled with the fluorescent membrane probe FM 1-43 as described by Kiryushko et al (2003) J Biol. Chem. 278:12325-34. The rate of FM 1-43 release (destaining of cells) evoked by depolarisation with 90 mM potassium was then evaluated by a time-lapse image acquisition using the Radiance 2000 scanning system and a Nikon eclipse TE200 confocal microscopy.

hippocampal neurons [2] = experiment: Synapse formation, synaptophysin/GAP-43 double-immunostaining; assay type: cell-based, rat
Description: The effect of FGLd on synapse formation was further evaluated using double-immunostaining of neurites and synapses in primary embryonic (E19) hippocampal neurons grown in culture for 13 days. Cells were incubated with FGLd for 48 or 96 hours, before fixation and immunostaining. The synapses were detected by antibodies against synaptophysin and the neyrites were labelled by antibodies against the growth-associated protein-43 (GAP-43—also called B-50 or F1). The immunostaining was visualised and quantified by confocal fluorescence microscopy as described by Rønn et al. (2000) (op. cit.).

[3] = system: rats treated with (25-35) β-amyloid fragment; experiment: Open Field test, (25-35) β-amyloid fragment rat model; assay type: in vivo; conditions: day 14; for time spent exploring holes / time spent rearing: sub-occipital, days 7, 10, 13
Description: The peptide was applied sub-occipitally at days 7, 10, and 13 after the (25-35) β-amyloid fragment induced neurotoxicity. […] The number of animals per group varied from 9 to 11. ‘A-β’ and ‘V’ are the abbreviations of the (25-35) β-amyloid fragment and vehicle, respectively. The results were analysed using unpaired t-test and significance of results was contingent on achieving a p-value of less than 0.05 (*p<0.05, **p<0.01), when compared with the first measurement period (1-3 min.).
The present study employed a rat model, in which neurotoxicity and cognitive impairment were induced by the (25-35) β-amyloid peptide fragment (see Maurice T., et al. (1996) (Brain Res. 706:181-93) and Delobette S., et al. (1997) Eur J Pharmacol. 319:1-4). Short-term memory deficit induced by the (25-35) β-amyloid peptide fragment in rat is of special importance to study, as it resembles one of the clinical manifestations of Alzheimer's disease. Short-term memory deficit in rats was evaluated using three different behavioural tests: the Social Recognition (Kogan et al, (2000) Hippocampus 10:47-56), Open Field (Cerbone and Sadile, (1994) Neurosci Biobehav Rev. 18:497-518; Vianna et al, (2000) Learn Mem. 7:333-40) and Y-maze (Clayton & Williams, (2000) Neurobiol Learn Mem. 74:135-45) tests. In addition, neuropathological investigations were performed on brain tissue collected at the time of sacrifice. The FGL peptide was administered either sub-occipitally or intranasally.
Behaviour of animals was evaluated using the Social Recognition test, the Open Field test or the Light-dark Discriminating γ-maze. On day 28-30 or day 51 after i.c.v. administration of the (25-35) β-amyloid fragment, the animals were sacrificed, and in selected studies, the brain tissue was collected, histological sections were immunostained with A-β specific antibodies and the amyloid-burden was calculated as a percentage of the A-βpositive area. In addition, the number of neurons in selected areas of brain-sections was calculated using a stereological approach.

[4] = system: cerebellar granule neurons (CGN); experiment: Survival of CGN induced to undergo apoptosis by low KCl; conditions: for Neuronal Survival (% of Control): Low K+ (5 mM)
Description: Cerebella granular meurons (CGN) (e and f) from postnatal day 7 rats were grown at a density of 100,000 cells/cm^2 for 7 days on poly-L-lysine coated microtiter plates in the medium containing 40 mM KCl, then the medium was substituted to a 5 mM KCl containing medium supplemented with various concentrations of FGLd.
For the experiments cerebellar tissue was dissected in modified Krebs-Ringer solution kept on ice, and treated as described for the hippocampal neurons above. All cell cultures were incubated at 37° C. in a humidified atmosphere containing 5% CO2.
Primary cultures of CGN were plated at a density of 100,000 cells/cm^2 on poly-L-lysine coated 8-well permanox slides in Neurobasal-A medium (Gibco, BRL) supplemented with 2% (v/v) B27, 0.5% (v/v) glutamax, 100 U/ml penicillin, 100 μg/ml streptomycin and KCl, making the final concentration of KCl in the medium 40 mM. 24 hours after plating, cytosine-β-D-arabinofuranoside (Ara-C; Sigma-Aldrich) was added to a final concentration of 10 μM to avoid proliferation of glial cells, after which the neurons were allowed to differentiate for further six days at 37° C. Apoptotic cell death was induced by washing twice and changing the medium to Basal Medium Eagle (BME; Gibco BRL) supplemented with 1% (v/v) glutamine, 100 U/ml penicillin and 100 μg/ml streptomycin, 3.5 g D-glucose/l and 1% (v/v) sodium pyruvate (Gibco BRL) together with various concentrations of peptide. Thereby the concentration of potassium in the cultures was reduced to 5 mM KCl. Two days after induction of apoptosis, the cells were fixed with 4% formaldehyde and stained with Hoechst 33258 as described for the survival assay employing hippocampal neurons.

FGLd: MAP-type dendrimer of FGL; dendrimeric tetramer of the FGL peptide (EVYVVAENQQGKSKA)
phosphorylation of Erk1/2 (Erk1/2; 5 μg/ml): unable to induce phosphorylation of Erk1/2 | phosphorylation of Erk1/2 (Erk1/2; 10 μg/ml, from 10 to at least 90 minutes, control cultures = 100%): 115-120% | rate of FM 1-43 unloading (hippocampal neurons [1]; 5 μg/ml for any time period): Neither treatment with 5 μg/ml FGLd for any time period, nor the treatment with 20 μg/ml for 24 hours had any effect | rate of FM 1-43 destaining (hippocampal neurons [1]; 20 μg/ml for 1 h, control 0.008): 0.016 s⁻¹ | rate of FM 1-43 destaining (hippocampal neurons [1]; 20 μg/ml for 24 h): did not result in a significant effect | rate of FM 1-43 destaining (hippocampal neurons [1]; 20 μg/ml for 48 h, control 0.013): 0.028 s⁻¹ | increase in the number of synaptophysin positive spots per 100 μm length of neurite (hippocampal neurons [2]; 20 μg/ml for 48 and 96 hours): approximately 20% | number of synaptophysin positive spots per 100 μm length of neurite (hippocampal neurons [2]; 20 μg/ml for 48 hours, control 2.40): 2.96 | number of synaptophysin positive spots per 100 μm length of neurite (hippocampal neurons [2]; 20 μg/ml for 96 hours, control 2.73): 3.24 | locomotion activity [3]: unaffected | time spent exploring holes ([3]; first measurement period): 3.3 s | time spent rearing ([3]; first measurement period): 7.0 s | time spent exploring holes ([3]; last measurement period): 0.1 s | time spent rearing ([3]; last measurement period): 0.7 s | Neuronal Survival (% of Control) ([4]; CGN (PND 3-4), 1 μg/mL): 131%* % of Control | Neuronal Survival (% of Control) ([4]; CGN (PND 3-4), 5 μg/mL): 110%* % of Control | Neuronal Survival (% of Control) ([4]; CGN (PND 3-4), 10 μg/mL): 132%* % of Control | Neuronal Survival (% of Control) ([4]; CGN (PND 3-4), 20 μg/mL): 117%** % of Control | Neuronal Survival (% of Control) ([4]; CGN (PND 7-8), 20 μg/mL): 175%* % of Control | maximal neuroprotection of CGN ([4]; at 1-10 μg/ml, controls grown at low KCl = 100%): 135%
